Data as given in patent US20200163984A1, “USE OF ISOVALERYL SPIRAMYCIN I, II AND/OR III IN MANUFACTURING MEDICAMENT FOR TREATING AND/OR PREVENTING TUMOR, AND MEDICAMENT” (SHENYANG FUYANG PHARMACEUTICAL TECHNOLOGY CO., LTD., priority 2017, published 2020).

Key:
[1] = test system: transplanted tumor of human non-small cell lung cancer cell A549; assay: A549 transplanted tumor in nude mice; conditions: for Tumor Volume (mm3) (d 1): d1
Protocol: (§1) A549 cells in a logarithmic growth phase were taken and subjected to a trypan blue exclusion experiment showing that the cell viability was more than 95%, then the cells were subjected to trypsinization, centrifugation, and supernatant removal. Then cell concentration was adjusted to 1×10^7/ml with matrigel, then each nude mouse was inoculated subcutaneously with 0.2 ml of cells at its right armpit and recorded as the first day of inoculation. When the tumor grows to be greater than or equal to 100 mm^3, the mice were randomly divided into 11 groups with 6 mice in each group: a model group, a cyclophosphamide group, isovaleryl spiramycin I groups with doses of 25, 50 and 100 mg/kg, isovaleryl spiramycin II groups with doses of 25, 50 and 100 mg/kg, and isovaleryl spiramycin III groups with doses of 25, 50 and 100 mg/kg. Each group was continuously administered intragastrically for 30 days with a dose of 20 ml/kg. The mice were sacrificed the next day after drug withdrawal and the indicators were tested. The long diameter and short diameter of the tumor, and the body weight of each mouse were recorded every 3 days from drug administration to nude mouse sacrifice.
(§2) The body weight of the nude mice and the long diameter (a) and short diameter (b) of the transplanted tumor were measured every 3 days, and the tumor volume (v), relative tumor volume (RTV) and relative tumor proliferation rate (T/C) are calculated respectively according to the following formulas, wherein V=a×b^2/2; RTV=V/V0 (V0 is the tumor volume before administration, V is the tumor volume before sacrifice), and T/C (%)=treatment group RTV/model control group RTV×100%.
(§3) Each mouse was weighed and sacrificed. After the tumor was completely stripped off from the body of the mouse, the non-tumor tissues such as blood stains and fat were removed to weigh the tumor and calculate the tumor growth inhibition rate. The average tumor weight of each group of mice is used as an indicator of efficacy. Tumor growth inhibition rate (%)=(1−the average tumor weight of the treatment group/the average tumor weight of the model group)×100%.

[2] = test system: transplanted tumor of human lymphoma cell U937; assay: U937 transplanted tumor in nude mice; conditions: for Tumor Volume (mm3) (d 1): d1
Protocol: as §1, with “U937” for “A549”
as §2, §3

[3] = test system: transplanted tumor of human esophageal cancer cell TE-1; assay: TE-1 transplanted tumor in nude mice
Protocol: as §1, with “Then” for “A549 cells in a logarithmic growth phase were taken and subjected to a trypan blue exclusion experiment showing that the cell viability was more than 95%, then the cells were subjected to trypsinization, centrifugation, and supernatant removal. Then”
as §2, §3

[4] = A549, high dose (100 mg/kg in method) i.g. 30 days
[5] = A549, low dose (25 mg/kg in method) i.g. 30 days
[6] = A549, medium dose (50 mg/kg in method) i.g. 30 days
[7] = U937, high dose (100 mg/kg in method) i.g. 30 days
[8] = U937, low dose (25 mg/kg in method) i.g. 30 days
[9] = U937, medium dose (50 mg/kg in method) i.g. 30 days
[10] = TE-1, 12.5 mg/kg (low dose) i.g. 30 days
[11] = TE-1, 25 mg/kg (medium dose) i.g. 30 days
[12] = TE-1, 50 mg/kg (high dose) i.g. 30 days

## CO[C@@H]1[C@@H](O[C@@H]2O[C@H](C)[C@@H](O[C@H]3C[C@@](C)(O)[C@@H](OC(=O)CC(C)C)[C@H](C)O3)[C@H](N(C)C)[C@H]2O)[C@@H](CC=O)C[C@@H](C)[C@@H](O[C@H]2CC[C@H](N(C)C)[C@@H](C)O2)/C=C/C=C/C[C@@H](C)OC(=O)C[C@H]1O [Isovaleryl spiramycin I, isovaleryl spiramycin I]
[1]; [4]
  Relative Tumor Proliferation Rate (T/C): 28.35%
  tumor growth inhibition rate: 69.52%
[1]; [5]
  Relative Tumor Proliferation Rate (T/C): 67.18%
  tumor growth inhibition rate: 24.00%
[1]; A549, low, medium and high doses, P<0.05
  tumor volume and relative tumor volume compared with the model group: significantly lower
[1]; [6]
  Relative Tumor Proliferation Rate (T/C): 41.93%
  tumor growth inhibition rate: 58.10%
[1]; A549 nude mice, 25 mg/kg
  Inhibition Rate (%): 24.00%
  Relative Tumor Proliferation Rate (T/C): 67.18%
  Relative Tumor Volume (RTV): 10.91 ± 2.63
  Tumor Weight: 1.82 ± 0.19 g
  Tumor Volume (mm3) (d 1): 111.89 ± 12.17 mm3
  Tumor Volume (mm3) (d30): 1227.24 ± 329.84 mm3
[1]; A549 nude mice, 50 mg/kg
  Inhibition Rate (%): 58.10%
  Relative Tumor Proliferation Rate (T/C): 39.42%
  Relative Tumor Volume (RTV): 6.40 ± 1.75
  Tumor Weight: 1.00 ± 0.44 g
  Tumor Volume (mm3) (d 1): 119.73 ± 5.73 mm3
  Tumor Volume (mm3) (d30): 750.44 ± 220.77 mm3
[1]; A549 nude mice, 100 mg/kg
  Inhibition Rate (%): 69.52%
  Relative Tumor Proliferation Rate (T/C): 28.35%
  Relative Tumor Volume (RTV): 4.60 ± 3.69
  Tumor Weight: 0.73 ± 0.45 g
  Tumor Volume (mm3) (d 1): 110.27 ± 11.43 mm3
  Tumor Volume (mm3) (d30): 475.83 ± 355.37 mm3
[1]; mouse, in vivo
  mouse weight compared with the model group: no significant changes
[1]; mouse, in vivo, 25 mg/kg
  Body Weight (g) (d1): 21.54 ± 1.27 g
  Body Weight (g) (d30): 24.20 ± 1.33 g
[1]; mouse, in vivo, 50 mg/kg
  Body Weight (g) (d1): 21.48 ± 1.46 g
  Body Weight (g) (d30): 25.56 ± 1.67 g
[1]; mouse, in vivo, 100 mg/kg
  Body Weight (g) (d1): 21.36 ± 1.82 g
  Body Weight (g) (d30): 24.47 ± 1.98 g
[2]; [7]
  Relative Tumor Proliferation Rate (T/C): 35.25%
  tumor growth inhibition rate: 65.03%
[2]; [8]
  Relative Tumor Proliferation Rate (T/C): 68.65%
  tumor growth inhibition rate: 41.73%
[2]; U937, low, medium and high doses, P<0.05
  tumor volume and relative tumor volume compared with the model group: significantly lower
[2]; [9]
  Relative Tumor Proliferation Rate (T/C): 39.74%
  tumor growth inhibition rate: 50.73%
[2]; U937 nude mice, 12.5 mg/kg
  Inhibition Rate (%): 41.73%
  Relative Tumor Proliferation Rate (T/C): 68.65%
  Relative Tumor Volume (RTV): 11.70 ± 3.59
  Tumor Weight: 1.13 ± 0.60 g
  Tumor Volume (mm3) (d 1): 108.43 ± 6.49 mm3
  Tumor Volume (mm3) (d30): 1270.43 ± 435.28 mm3
[2]; U937 nude mice, 25 mg/kg
  Inhibition Rate (%): 50.73%
  Relative Tumor Proliferation Rate (T/C): 39.74%
  Relative Tumor Volume (RTV): 6.77 ± 0.57
  Tumor Weight: 0.95 ± 0.42 g
  Tumor Volume (mm3) (d 1): 108.61 ± 9.06 mm3
  Tumor Volume (mm3) (d30): 734.22 ± 76.87 mm3
[2]; U937 nude mice, 50 mg/kg
  Inhibition Rate (%): 65.03%
  Relative Tumor Proliferation Rate (T/C): 35.25%
  Relative Tumor Volume (RTV): 6.01 ± 2.26
  Tumor Weight: 0.68 ± 0.09 g
  Tumor Volume (mm3) (d 1): 109.98 ± 5.88 mm3
  Tumor Volume (mm3) (d30): 660.17 ± 37.49 mm3
[2]; mouse, in vivo
  mouse weight compared with the model group: no significant changes
[2]; mouse, in vivo, 12.5 mg/kg
  Body Weight (g) (d1): 21.19 ± 0.66 g
  Body Weight (g) (d30): 21.16 ± 0.74 g
[2]; mouse, in vivo, 25 mg/kg
  Body Weight (g) (d1): 21.28 ± 0.52 g
  Body Weight (g) (d30): 21.01 ± 0.68 g
[2]; mouse, in vivo, 50 mg/kg
  Body Weight (g) (d1): 20.64 ± 0.39 g
  Body Weight (g) (d30): 20.94 ± 0.77 g
[3]; [10]
  Inhibition Rate (tumor growth inhibition rate): 30.92%
  Relative Tumor Proliferation Rate (T/C): 60.55%
  Relative Tumor Volume (RTV): 5.48 ± 3.80
  Tumor Volume (d 1): 408.51 ± 150.80 mm3
  Tumor Volume (d 30): 2690.27 ± 374.79 mm3
  Tumor Weight: 1.08 ± 0.24 g
[3]; [11]
  Inhibition Rate (tumor growth inhibition rate): 51.01%
  Relative Tumor Proliferation Rate (T/C): 40.70%
  Relative Tumor Volume (RTV): 3.94 ± 2.71
  Tumor Volume (d 1): 258.44 ± 104.69 mm3
  Tumor Volume (d 30): 1143.85 ± 402.36 mm3
  Tumor Weight: 0.77 ± 0.43 g
[3]; [12]
  Inhibition Rate (tumor growth inhibition rate): 69.71%
  Relative Tumor Proliferation Rate (T/C): 20.61%
  Relative Tumor Volume (RTV): 3.65 ± 1.71
  Tumor Volume (d 1): 279.56 ± 156.70 mm3
  Tumor Volume (d 30): 626.64 ± 431.35 mm3
  Tumor Weight: 0.48 ± 0.36 g
[3]; TE-1, low, medium and high doses, P<0.05
  tumor volume and relative tumor volume compared with the model group: significantly lower
[3]; mouse, in vivo
  mouse weight compared with the model group: no significant changes
